One test has as its target T1, elastase type III (Sus scrofa, UniProt P00772).
T1 construct: purchased SIGMA-Aldrich type III
Put plainly: Elastase activity inhibitory action test. It counts as biochemical. The following applies: read-out: Elastase activity inhibition rate; for inhibition at 1000 µM: 1000 μmol/L. On the procedure:
In a 96-well microplate, 50 μL of each of test samples (Samples 1 to 3, see Table 8 below for final concentrations) prepared with 0.2 mol/L Tris-HCl buffer solution (pH 8.0) and 50 μL of 20 μg/mL elastase type III (available from SIGMA-Aldrich) solution was mixed. After that, 100 μL of 0.4514 mg/mL N-succinyl-Ala-Ala-Ala-p-nitroanilide (available from SIGMA-Aldrich) prepared with the above buffer solution was added, and the mixture was reacted at 25° C. for 15 minutes. After the reaction was completed, the absorbance at a wavelength of 415 nm was measured. In addition, a blank test without enzyme addition was performed in the same manner and correction was made. From the obtained results, the elastase activity inhibition rate (%) was calculated using the following equation.
Terms in the equation represent the following respective ones. • A: Absorbance at wavelength 415 nm without sample addition and with enzyme addition • B: Absorbance at wavelength 415 nm without sample addition and without enzyme addition • C: Absorbance at wavelength 415 nm with test sample addition and with enzyme addition • D: Absorbance at wavelength 415 nm with test sample addition and without enzyme addition

Test [1] concerns the target T2, testosterone 5α-reductase (S-9, rat liver homogenate) (Rattus norvegicus, UniProt P24008).
T2 construct: tissue Oriental Yeast Co., Ltd. S-9; host or cells: rat liver homogenate (S-9 fraction)
T2 sequence (P24008 1-259): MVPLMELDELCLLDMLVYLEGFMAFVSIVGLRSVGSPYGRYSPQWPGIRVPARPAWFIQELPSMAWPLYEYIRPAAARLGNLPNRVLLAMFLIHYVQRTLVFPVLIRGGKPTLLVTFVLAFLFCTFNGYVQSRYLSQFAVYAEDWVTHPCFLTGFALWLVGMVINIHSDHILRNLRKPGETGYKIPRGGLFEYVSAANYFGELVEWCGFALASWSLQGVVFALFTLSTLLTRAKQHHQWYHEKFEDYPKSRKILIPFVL
As to the kind of experiment: Testosterone 5α-reductase inhibitory action test. It counts as biochemical. The following applies: rat liver S-9, read-out: Testosterone 5 α-reductase inhibition rate; for inhibition at 2000 µM: 2000 μmol/L; for inhibition at 8000 µM: 8000 μmol/L. On the procedure: In a V-bottom test tube with a lid, 20 μL of a 4.2 mg/mL testosterone (available from FUJIFILM Wako Pure Chemical Corporation) solution prepared with propylene glycol and 825 μL of 5 mmol/L Tris-HCl (pH 7.13) buffer solution containing 1 mg/mL NADPH were mixed.
Furthermore, 80 μL of each of test sample solutions (Samples 1 to 3, see Table 24 below for final concentrations) prepared with 80% ethanol and 75 μL of S-9 (available from Oriental Yeast Co., Ltd., rat liver homogenate) were added, mixed, and incubated at 37° C. for 60 minutes. After that, 1 mL of methylene chloride was added to stop the reaction. This was centrifuged (1600×g, 10 minutes), the methylene chloride layer was separated, and the separated methylene chloride layer was subjected to gas chromatography analysis under the following conditions to determine the concentrations of 3α-androstanediol, 5α-dihydrotestosterone (5α-DHT), and testosterone. As a control, the same process was performed using the same amount (80 μL) of the sample solvent in place of the test sample solution, and the control was subjected to gas chromatography analysis.
• Device used: Shimadzu GC-2010 (available from Shimadzu Corporation) • Column: DB-1701 (inner diameter: 0.53 mm, length: 30 m, film thickness: 1.0 μm) (available from J&W Scientific) • Column temperature: 240° C. • Inlet temperature: 300° C. • Detector: FID • Sample injection amount: 1 μL • Split ratio: 1:2 • Carrier gas: Nitrogen gas • Carrier gas flow rate: 12 mL/min
Quantitative determination of the concentrations of 3α-androstanediol, 5α-DHT, and testosterone was performed by the following method.
Standard products of 3α-androstanediol, 5α-DHT, and testosterone were each dissolved in ethanol, and the solutions were subjected to gas chromatography analysis. From the concentrations (μg/mL) and peak areas of these compounds, the correspondence relationship between the peak area and the concentration of each compound was preliminarily obtained. Then, the concentration per peak area of each of 3α-androstanediol, 5α-DHT, and testosterone after the reaction between testosterone and S-9 was obtained based on the following equation (1) using the correspondence relationship which was preliminarily obtained.
Terms in the equation represent the following respective ones. • A: Concentration of 3α-androstanediol, 5α-DHT, or testosterone • B: Peak area of 3α-androstanediol, 5α-DHT, or testosterone • C: Concentration of standard product • D: Peak area of standard product
Using the compound concentration calculated based on the equation (1), the conversion ratio (concentration ratio between the concentration of 3α-androstanediol and 5α-DHT produced by reduction of testosterone due to testosterone 5α-reductase and the initial concentration of testosterone) was calculated based on the following equation (2).
Terms in the equation represent the following respective ones. • E: Concentration of 3α-androstanediol (μg/mL) • F: Concentration of 5α-DHT (μg/mL) • G: Concentration of testosterone (μg/mL)
Using the conversion ratio calculated based on the equation (2), the testosterone 5α-reductase inhibition rate (%) was calculated based on the following equation (3).
Terms in the equation represent the following respective ones. • H: Conversion ratio with test sample addition • I: Conversion ratio without sample addition

The test system of test [2] is Normal human liver cells (hepatocytes). As to the kind of experiment: Glutathione production promotive action test (hepatocytes). The test is classed as cell-based. The note with it: 24 hours. On the procedure: Normal human liver cells (hepatocytes) were cultured using Dulbecco's modified Eagle's medium (DMEM) containing 10% FBS, and then the cells were collected by a trypsin treatment. The collected cells were diluted with DMEM containing 10% FBS to a cell density of 10×10^4 cells/mL, then seeded with 200 μL per well in a 48-well plate, and cultured overnight.
After culturing, the medium was removed, 200 μL of each of test samples (Samples 1 to 3, see Table 30 below for final concentrations) dissolved in DMEM containing 1% FBS was added to each well, and culturing was further performed for 24 hours. As a control, culturing was performed in the same manner using DMEM containing 1% FBS to which no sample was added. After the culturing was completed, the medium was removed from each well, and the cells were washed with 400 μL of PBS(−) and then lysed using 150 μL of M-PER (available from PIERCE).
Quantitative determination of total glutathione was performed using 100 μL of the lysed cells. That is, 100 μL of lysed cell extract, 50 μL of 0.1 mol/L phosphate buffer solution, 25 μL of 2 mmol/L NADPH, and 25 μL of 3.2 unit/mL glutathione reductase were added to a 96-well plate and heated at 37° C. for 10 minutes, then 25 μL of 10 mmol/L 5,5′-dithiobis(2-nitrobenzoic acid) was added, and the absorbance at a wavelength of 412 nm was measured until 5 minutes later to determine ΔOD/min. The total glutathione concentration was calculated based on a calibration curve created using oxidized glutathione (available from FUJIFILM Wako Pure Chemical Corporation). After correcting the obtained value to the glutathione value per total protein amount, the glutathione production promotion rate (%) was calculated based on the following equation.
Terms in the equation represent the following respective ones. • A: Glutathione amount per total protein amount without sample addition • B: Glutathione amount per total protein amount with test sample addition

T1 sequence (P00772 27-266): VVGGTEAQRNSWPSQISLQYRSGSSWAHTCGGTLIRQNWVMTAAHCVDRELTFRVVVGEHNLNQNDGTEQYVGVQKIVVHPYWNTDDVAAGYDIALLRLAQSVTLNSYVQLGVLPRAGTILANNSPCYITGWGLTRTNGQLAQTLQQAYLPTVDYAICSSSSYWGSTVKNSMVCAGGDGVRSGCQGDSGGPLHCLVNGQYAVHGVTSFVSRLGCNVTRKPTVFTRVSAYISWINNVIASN

On to `O=C(O)CCc1ccc(O)c(O)c1` [Sample 1, 3,4-Dihydroxyhydrocinnamic acid], for which, at elastase type III (250 μmol/L), the inhibition at 250 µM was found to be 3.2%. Besides, at elastase type III (500 μmol/L), the inhibition at 500 µM amounted to 6.7%. The inhibition at 1000 µM at elastase type III amounted to 8.1%. For the same compound, the inhibition at 2000 µM in test [1] came out at 34.3%. Also, the inhibition at 8000 µM in test [1] was found to be 100%. Besides, the “Glutathione production promotion rate” value came to 123.9% in test [2] (31.2 μmol/L), 124.8% in test [2] (125 μmol/L) and 113.4% in test [2] (500 μmol/L).

As for `O=C(O)CCc1ccc(O)cc1` [Sample 2, 3-(4-Hydroxyphenyl)propionic acid], the inhibition at 1000 µM at elastase type III is 4.2%. Also, the inhibition at 2000 µM in test [1] was 71%. Besides, in test [1], the inhibition at 8000 µM is 100%. Moreover, the “Glutathione production promotion rate” value in test [2] (31.2 μmol/L) was 119.2%; in test [2] (125 μmol/L), 118.1%.

Consider `O=C(O)CCc1ccccc1` [Sample 3, 3-phenylpropionic acid], for which, at elastase type III, the inhibition at 1000 µM stood at 5%. The inhibition at 2000 µM in test [1] amounted to 76.4%. Besides, the inhibition at 8000 µM in test [1] was 100%. Besides, the “Glutathione production promotion rate” value in test [2] (31.2 μmol/L) was determined as 133.9%; in test [2] (125 μmol/L) it was 124.6%; in test [2] (500 μmol/L), 119.2%.
